Data taken from patent publication US5597801A, “Biocidal proteins” (priority 1991, dated 1997).
Where no end group is shown, it is not given here.

Experiments:
Sarcina lutea ATCC 9342 = assay: Antibacterial activity assay (microspectrophotometry); type: cell-based; settings: S lutea; 24 hours of incubation at 28° C.
B cinerea = assay: Effect of ions on antifungal activity (synthetic growth medium); type: cell-based, Botrytis cinerea; settings: for increase of IC50 values by CaCl2 at 1 mM: reference medium + 1 mM CaCl2; for drop in specific activity at 5 mM CaCl2: reference medium + 5 mM CaCl2; for effect of KCl at 10 mM on the dose-response curves: reference medium + 10 mM KCl; for increase of IC50 values by KCl at 50 mM: reference medium + 50 mM KCl; for IC50 in reference medium: synthetic growth medium, 2.5 mM monovalent and 0.1 mM divalent cations
Phytophthora infestans = type: cell-based
[1] = test system: Bacillus megaterium ATCC 13632; assay: Antibacterial activity assay (microspectrophotometry); type: cell-based; settings: B megaterium; 24 hours of incubation at 28° C.
[2] = test system: Erwinia carotovora strain 3912; assay: as above; type: cell-based; settings: E carotovora; highest test concentration 500 μg/ml
[3] = Chitin-binding activity (chitin micro-column, SDS-PAGE of fractions); settings: 50 μg on chitin micro-column; washed at pH 7, desorbed with 100 mM acetic acid (pH 2.8)
Fusarium culmorum spores [4] = type: cell-based; settings: F culmorum spores; protein 2-4 fold below the IC50 value; light microscope
Description: During the course of screening many different plant species it has become evident that the protein class of the invention is fairly common in plant seeds. […] This is particularly evident when using Fusarium culmorum. The nature of the inhibition may also be characterized by the fact that it is very sensitive to the concentration of cations used in the assay.
This is readily visualised when Fusarium culmorum spores are used in the assay and at concentrations of the proteins which are 2-4 fold below the IC50 value.

[5] = test system: Escherichia coli strain HB101; assay: Antibacterial activity assay (microspectrophotometry); type: cell-based; settings: E coli; for IC50 (antibacterial activity): Table 4, highest test concentration 500 μg/ml; for IC50 (activity on bacteria): Table 5
[6] = test system: Ascochyta pisi MUCL 30164; type: cell-based
[7] = test system: Verticillium dahliae MUCL 19210; type: cell-based
[8] = test system: Alternaria brassicola MUCL 20297; type: cell-based
[9] = test system: Botrytis cinerea MUCL 30158; type: cell-based
[10] = test system: Colletotrichum lindemuthianum MUCL 9577; type: cell-based
[11] = test system: Cercospora beticola strain K897; type: cell-based
plant pathogenic fungi = type: cell-based
[12] = test system: Alternaria longipes strain CBS 620.83; assay: Antifungal activity assay (growth inhibition, microspectrophotometry); type: cell-based; settings: A longipes; medium B (medium A + 1 mM CaCl2, 50 mM KCl); 48 h
[13] = test system: Cladosporium sphaerospermum strain KO791; assay: as above; type: cell-based; settings: C sphaerospermum; medium B (medium A + 1 mM CaCl2, 50 mM KCl); 48 h
Fusarium culmorum spores [14] = type: physicochemical; settings: for antifungal activity after heat treatment at up to 80° C.: 10 minutes, F culmorum assay; for antifungal activity after reduction of disulphide bonds: reduction by DTE / dithiothreitol
Protocol: Tests for antifungal activity were performed with 20 μl samples diluted five-fold with growth medium containing Fusarium culmorum spores, according to the assay method given in Example 1. Untreated control samples consisted of the test proteins at 500 μg/ml in 10 mM sodium phosphat buffer (pH 7). For digestions, different proteases were added at 100 μg/ml and incubated at 37° C. for 16 hours. Heat stability tests were performed by heating aliquots of the test proteins for 10 minutes at different temperatures up to 100° C. pH stability was tested by incubation of test proteins for 1 hour in either 20 mM glycine-HCl (pH 2) or glycine-NaOH (pH 11) and subsequent dialysis for 16 hours against 10 mM sodium phosphate buffer (pH 7) using benzoylated cellulose tubing. Reduction of dishulphide bridges was done by addition of DTE at 30 mM and Tris-HCl (pH 8.6) at 300 mM. The reagents were removed by reversed-phase chromatography. For digestions, different proteases were added at 200 μg/ml and incubated at 37° C. for 3 hours.

| Substance | IC50 (antibacterial activity) (Sarcina lutea ATCC 9342) [µg/mL] | increase of IC50 values by CaCl2 at 1 mM (B cinerea) | drop in specific activity at 5 mM CaCl2 (B cinerea) | effect of KCl at 10 mM on the dose-response curves (B cinerea) | increase of IC50 values by KCl at 50 mM (B cinerea) | IC50 in reference medium (B cinerea) [µg/mL] | IC50 (antibacterial activity) [2] | affinity toward chitin [3] | morphological change of partially inhibited spores (Fusarium culmorum spores [4]) | IC50 (antibacterial activity) [5] | antifungal activity in high salt (medium B) (plant pathogenic fungi) | antifungal activity after heat treatment at up to 80° C. (Fusarium culmorum spores [14]) | antifungal activity after reduction of disulphide bonds (Fusarium culmorum spores [14]) | IC50 (activity on bacteria) [5] [µg/mL] | further results |
| --- | --- | --- | --- | --- | --- | --- | --- | --- | --- | --- | --- | --- | --- | --- | --- |
| Ac-AMP1: antimicrobial protein from Amaranthus caudatus seeds, 29 residues, dimer of 3 kDa subunits (SEQ ID NO:5) (VGECVRGRCPSGMCCSQFGYCGKGPKYCG; cysteine pairing not given here; also: dimer of subunits) | 250 | five to six-fold | more than 50 fold | did not significantly affect | about three-fold | 2.2 | no inhibition | exhibit affinity toward chitin | severe branching of the emerging hyphal tips | no inhibition |  |  |  |  | IC50 (concentration required for 50% growth inhibition) (Phytophthora infestans): 12; IC50 (antibacterial activity) [1]: 40 µg/mL |
| Ac-AMP2: antimicrobial protein from Amaranthus caudatus seeds, 30 residues, Ac-AMP1 plus carboxyl-terminal arginine (SEQ ID NO:6) (VGECVRGRCPSGMCCSQFGYCGKGPKYCGR) | 40 | five to six-fold | more than 50 fold | did not significantly affect | about three-fold | 1.6 | no inhibition | exhibit affinity toward chitin |  | no inhibition |  |  |  |  | IC50 (concentration required for 50% growth inhibition) [6]: 8; IC50 (concentration required for 50% growth inhibition) [7]: 5; IC50 (concentration required for 50% growth inhibition) [8]: 4; IC50 (concentration required for 50% growth inhibition) [9]: 8; IC50 (concentration required for 50% growth inhibition) [10]: 8; IC50 (concentration required for 50% growth inhibition) [11]: 0.8 |
| Bm-AMP1: antimicrobial protein purified from seeds of Briza maxima; may be a mixture of peptides varying at positions 9 and 23 (SEQ ID NO:16) |  |  |  |  |  |  |  |  |  |  | essentially abolished | resistant | completely abolished | > 800 | number of fungi with IC50 value below 10 μg/ml (plant pathogenic fungi): six of the eight; IC50 Medium B [12]: > 500 µg/mL; IC50 Medium B [13]: > 500 µg/mL |
| Ca-AMP1: antimicrobial protein purified from seeds of Capsicum annuum (SEQ ID NO:15) (QEQCGNQAGGRACANRLCCSQYGYCGSTRAYCGVGCQSNCGR) |  |  |  |  |  |  |  | exhibits affinity to chitin | severe branching of the emerging hyphal tips |  | essentially abolished | resistant | completely abolished | > 800 | number of fungi with IC50 value below 50 μg/ml (plant pathogenic fungi): 12 of the 18; antifungal activity after treatment with chymotrypsin (Fusarium culmorum spores [14]; chymotrypsin): no affect on activity; reduction of antifungal activity after treatment with pronase E (Fusarium culmorum spores [14]; pronase E): at least 10 fold; reduction of antifungal activity after treatment with proteinase K (Fusarium culmorum spores [14]; proteinase K): at least 10 fold; reduction of antifungal activity after treatment with trypsin (Fusarium culmorum spores [14]; trypsin): 2 fold |
